Read-outs that look alike come from different tables or passages of the source. *1 amine or outer side, *2 acyl side, *3 side chain or, on linkers, in order; H or OH if unused. Bridges are numbered along the chain shown (N, C = ends). [ ]: non-standard residue; d: D form. PyrS2 = (S)-3-amino-1-((pent-4-en-1-yloxy)carbonyl)pyrrolidine-3-carboxylic acid, olefin staple residue, C=CCCCOC(=O)N1CC[C@@](N[*:1])(C(=O)[*:2])C1; Phe(3-COOH) = N[C@@H](Cc1cccc(C(=O)O)c1)C(=O)O; 2F3MeF = Cc1cccc(C[C@H](N[*:1])C(=O)[*:2])c1F; Bta = N[C@@H](Cc1csc2ccccc12)C(=O)O; αAllylPro = C=CC[C@@]1(C(=O)O)CCCN1; tBuAla = CC(C)(C)C[C@H](N)C(=O)O; GlnR = not defined here; B5 = not defined here
What was measured:
[1] = system: COLO320DM cells; assay: COLO320DM proliferation assay; assay type: cell-based, human; details: read-out: COLO320DM Proliferation Abs IC50
Description: Various technologies can be utilized to assess technologies of the present disclosure. For example, in some embodiments, solubility, LogD, interactions with targets, etc. of various agents such as stapled peptides were assessed using technologies described in WO 2022/261257 (e.g., those in its Examples). In some embodiments, solubility, shake flask LogD, and binding to beta-catenin were assessed. In some embodiments, an assay for assessing interactions, e.g., with beta-catenin, was fluorescence polarization as described in WO 2022/261257. In some embodiments, an assay was Nano-BRET target engagement assay that assessed beta-catenin/TCF4 engagement as described in WO 2022/261257. In some embodiments, an assay was a reporter assay as reported in Example 4 of WO 2022/261257. In some embodiments, an assay was a COLO320DM proliferation assay as reported in Example 4 of WO 2022/261257.
Among other things, provided technologies can inhibit proliferation of various cells including various cancer cells. In some embodiments, provided technologies modulate WNT specific transcription. In some embodiments, provided technologies induce cell cycle arrest. In some embodiments, provided technologies induce G1 cell cycle arrest. In some embodiments, provided technologies increased proportion of cells in G1 phase of cell cycle. As confirmed in FIG. 3, provided technologies can inhibit proliferation of COLO320DM, which is a colorectal cell line comprising various mutations such as APC, TP53, etc., modulate WNT specific transcription such as of AXIN2 and CXCL12, and induce G1 cell cycle arrest. In some embodiments, it was confirmed that provided technologies can reduce proportion of cells in S phase of cell cycle.

[2] = system: DLD1 reporter; assay: reporter assay (DLD1 reporter assay); assay type: cell-based; details: read-out: DLD1 4% Abs IC50
[3] = target: T1, beta-catenin/TCF4 (Homo sapiens, UniProt P35222); assay: Nano-BRET target engagement assay (HEK293 cells); assay type: cell-based; details: read-out: NanoBRET Abs IC50
T1 construct: expressed in transfected cells; host or cells: HEK293 cells
T1 sequence (P35222 1-781): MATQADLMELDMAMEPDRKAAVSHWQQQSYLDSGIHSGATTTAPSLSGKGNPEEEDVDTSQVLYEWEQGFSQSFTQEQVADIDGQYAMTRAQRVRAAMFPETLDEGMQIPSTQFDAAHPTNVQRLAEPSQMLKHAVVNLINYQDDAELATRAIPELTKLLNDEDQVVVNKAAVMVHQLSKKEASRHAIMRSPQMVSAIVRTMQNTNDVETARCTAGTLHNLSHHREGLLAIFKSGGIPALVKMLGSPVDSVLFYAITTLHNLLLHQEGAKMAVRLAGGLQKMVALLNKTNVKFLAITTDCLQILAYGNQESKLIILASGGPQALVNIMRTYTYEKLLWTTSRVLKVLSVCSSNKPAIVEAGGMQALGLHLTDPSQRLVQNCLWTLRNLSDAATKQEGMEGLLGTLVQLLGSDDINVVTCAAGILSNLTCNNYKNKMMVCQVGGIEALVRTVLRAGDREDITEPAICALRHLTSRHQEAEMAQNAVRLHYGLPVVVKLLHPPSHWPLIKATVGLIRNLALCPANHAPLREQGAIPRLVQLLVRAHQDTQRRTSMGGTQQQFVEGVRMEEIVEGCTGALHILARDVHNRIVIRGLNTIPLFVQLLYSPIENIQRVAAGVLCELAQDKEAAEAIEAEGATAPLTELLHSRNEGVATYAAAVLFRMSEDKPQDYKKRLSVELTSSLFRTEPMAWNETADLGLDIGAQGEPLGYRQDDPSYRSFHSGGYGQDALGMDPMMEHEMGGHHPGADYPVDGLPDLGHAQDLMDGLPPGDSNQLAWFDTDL
Description: In some embodiments, capabilities of provided technologies, e.g., binding to beta-catenin and/or disrupt its interactions (or lack thereof) with various partners were assessed and confirmed in cells, e.g., using a NanoBRET based assay in HEK293 cells.

[4] = target: T2, beta-catenin (Homo sapiens, UniProt P35222); assay: fluorescence polarization binding to beta-catenin; details: read-out: beta-Catenin FP IC50
T2 sequence (P35222 1-781): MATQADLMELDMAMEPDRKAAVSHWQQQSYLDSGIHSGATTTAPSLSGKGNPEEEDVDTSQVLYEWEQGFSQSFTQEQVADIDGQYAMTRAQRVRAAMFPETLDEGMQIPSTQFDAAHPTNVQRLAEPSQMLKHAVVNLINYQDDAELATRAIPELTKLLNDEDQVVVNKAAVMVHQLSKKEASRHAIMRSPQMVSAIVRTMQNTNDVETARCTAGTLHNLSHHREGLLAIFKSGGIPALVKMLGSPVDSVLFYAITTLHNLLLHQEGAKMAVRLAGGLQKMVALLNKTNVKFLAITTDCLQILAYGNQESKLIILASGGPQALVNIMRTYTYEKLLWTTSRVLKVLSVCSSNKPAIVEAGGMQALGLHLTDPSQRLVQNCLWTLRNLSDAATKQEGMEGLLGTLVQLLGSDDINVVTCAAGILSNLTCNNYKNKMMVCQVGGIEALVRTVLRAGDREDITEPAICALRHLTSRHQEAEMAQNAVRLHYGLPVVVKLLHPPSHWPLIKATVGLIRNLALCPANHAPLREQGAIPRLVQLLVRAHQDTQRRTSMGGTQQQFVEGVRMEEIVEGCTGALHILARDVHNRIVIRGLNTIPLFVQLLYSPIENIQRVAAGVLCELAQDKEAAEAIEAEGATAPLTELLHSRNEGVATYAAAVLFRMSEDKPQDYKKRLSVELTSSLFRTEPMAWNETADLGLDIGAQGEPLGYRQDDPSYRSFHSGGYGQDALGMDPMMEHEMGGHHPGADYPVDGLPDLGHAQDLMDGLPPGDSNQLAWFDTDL
Description: In some embodiments, an EC50 is measured by fluorescence polarization as described in the Examples.

[5] = system: beta-catenin/TCF; assay type: cell-based; details: COLO320DM cells
[6] = mouse plasma pharmacokinetics; assay type: in vivo; details: single intraperitoneal (IP) dose at 100 mg/kg
Description: (B): Mouse plasma pharmacokinetics. […] Mouse single dose IP, 50 mg/kg.
Concentrations of agents in biological samples were measured by LC-MS/MS (Triple Quad 6500+). […] 8 uL of plasma or tissue lysate was used for LC method with mobile phase A (1% formic acid (FA, LS118-4, Fisher Scientific) in H2O) and mobile phase B (0.1% FA in ACN), 0.6 ml/min flow rate in Waters ACQUITY UPLC BEH C18 2.1*50 mm, 1.7 μm column. […] MS was conducted by electrospray ionization and multi reaction monitor scans. PK parameters such as plasma maximum concentration (Cmax), and AUC were analyzed by noncompartmental model 200 of Phoenix WinNonlin 8.3, using the linear/log trapezoidal method.

[7] = target: beta-catenin (human); assay: fluorescence polarization; bin >750 nM
[8] = target: beta-catenin (human); assay: cell-based or functional assay

Molecule CCCC[C@@H]1NC(=O)[C@H](Cc2cccc(C(=O)O)c2)NC(=O)[C@H](CC(=O)O)NC(=O)C2(CCCC=CCCCOC(=O)N3CC[C@@]4(C3)NC(=O)[C@H](CCCCNC(=O)CC[C@@H](C(=O)N[C@@H](C)C(N)=O)NC(=O)[C@H](Cc3csc5ccccc35)NC(=O)[C@H](Cc3ccsc3)NC4=O)NC(=O)[C@H](Cc3ccccc3)NC(=O)[C@H](C)NC1=O)CCCC=CC[C@]1(CCCN1C(C)=O)C(=O)N[C@@H](CC(=O)O)C(=O)N[C@@H](CC(C)(C)C)C(=O)N2 (relative stereo) [I-70, Ac-PL3-Asp-Npg-B5-Asp-3COOHF-nLeu-Ala-Phe-Lys*3-PyrS2-3Thi-BztA-GlnR*3-Ala-NH2] has an IC50 [1] of at most 10000 nM and an IC50 ([2]; DLD1 4%) of at most 1000 nM.

Molecule CC(=O)N1CCC[C@]12CC=CCCCC1(CCCC=CCCCOC(=O)N3CC[C@@]4(C3)NC(=O)[C@H](CCCCNC(=O)CC[C@@H](C(=O)N[C@@H](C)C(N)=O)NC(=O)[C@H](Cc3csc5ccccc35)NC(=O)[C@H](Cc3ccccc3C(F)(F)F)NC4=O)NC(=O)[C@H](Cc3ccccc3)NC(=O)[C@H](C)NC(=O)C(C)(C)NC(=O)[C@H](Cc3cccc(C(=O)O)c3)NC(=O)[C@H](CC(=O)O)NC1=O)NC(=O)[C@H](CC(C)(C)C)NC(=O)[C@H](CC(=O)O)NC2=O (single isomer, unassigned) [I-69, Ac-PL3-Asp-Npg-B5-Asp-3COOHF-Aib-Ala-Phe-Lys*3-PyrS2-2F3MeF-BztA-GlnR*3-Ala-NH2] has an IC50 [1] of at most 10000 nM and an IC50 ([2]; DLD1 4%) of at most 1000 nM.

“Ac-PL3-Asp-Npg-B5-Asp-4F3Me2COOHF-Aib-Ala-Phe-Lys*3-PyrS2-2F3MeF-BztA-GlnR*3-Ala-NH2 [I-205]” showed an IC50 [3] of 3000 to 10000 nM and an IC50 [4] of under 50 nM.

For CC(=O)N1CCC[C@]12CC=CCCCC1(CCCC=CCCCOC(=O)N3CC[C@@]4(C3)NC(=O)[C@H](CCCCNC(=O)CC[C@@H](C(=O)N[C@@H](C)C(N)=O)NC(=O)[C@H](Cc3csc5ccccc35)NC(=O)[C@H](Cc3ccsc3)NC4=O)NC(=O)[C@H](Cc3ccccc3)NC(=O)[C@H](C)NC(=O)C(C)(C)NC(=O)[C@H](Cc3cccc(C(=O)O)c3)NC(=O)[C@H](CCC(=O)O)NC1=O)NC(=O)[C@H](CC(C)(C)C)NC(=O)[C@H](CCC(=O)O)NC2=O (relative stereo) [I-470, Ac-PL3-Glu-Npg-B5-Glu-3COOHF-Aib-Ala-Phe-Lys*3-PyrS2-3Thi-BztA-GlnR*3-Ala-NH2], the “effect on expression level of AXIN2” value [5] was “no or very little or non-significant effect” and the “plasma AUC” value [6] was “comparable plasma AUC”.

Work on CC(=O)N1CCC[C@]12CC=CCCCC1(CCCC=CCCCOC(=O)N3CC[C@@]4(C3)NC(=O)[C@H](CCCCn3cc(nn3)C[C@@H](C(=O)N[C@@H](C)C(N)=O)NC(=O)[C@H](Cc3csc5ccccc35)NC(=O)[C@H](Cc3ccsc3)NC4=O)NC(=O)[C@H](Cc3ccccc3)NC(=O)[C@H](C)NC(=O)C(C)(C)NC(=O)[C@H](Cc3cccc(C(=O)O)c3)NC(=O)[C@H](CC(=O)O)NC1=O)NC(=O)[C@H](CC(C)(C)C)NC(=O)[C@H](CC(=O)O)NC2=O (single isomer, unassigned) [I-335, Ac-PL3-Asp-Npg-B5-Asp-3COOHF-Aib-Ala-Phe-TriAzLys*3-PyrS2-3Thi-BztA-sAla*3-Ala-NH2] yielded an IC50 [1] of at most 10000 nM and an IC50 ([2]; DLD1 reporter, 4%) of at most 1000 nM.

B1: I-133 (peptide)
peptide: Ac-[αAllylPro]D[tBuAla][B5]D[Phe(3-COOH)][GlnR]AFL[PyrS2][2F3MeF][Bta][GlnR](39N2spiroundecane)A-NH2
modifications: staple 1-4, 4-11 (inferred); not fully specified; printed as Ac-PL3-Asp-Npg-B5-Asp-3COOHF-GlnR-Ala-Phe-Leu-PyrS2-2F3MeF-BztA-[39N2spiroundecane]GlnR-Ala-NH2; reading uncertain; also: staple C=C reduced to CH2-CH2
B1 gave an IC50 [7] of under 1000 nM and a NanoBRET Abs IC50 [8] of over 10000 nM.

From US20260207704A1, “STAPLED PEPTIDES AND METHODS THEREOF” (priority 2022, published 2026)
